Data from US20130324522A1, “INSECT ODORANT RECEPTOR ANTAGONISTS” (THE ROCKEFELLER UNIVERSITY, priority 2010, published 2013).
pIC50: −log10 of the molar value. Read-outs that look alike come from different tables or passages of the source.

Legend:
[1] = molecular target: T1, OR2/OR7 (Anopheles gambiae, UniProt Q7QCC7+Q8WTE6); assay: Ca2+-imaging of stable HEK293T cell line OR2/OR7; assay type: cell-based
T1 construct: Full-length cDNAs for mosquito (Anopheles gambiae) odorant receptor (OR1, OR2, OR7, OR8, OR28); expressed in transfected cells
T1 sequence (Q8WTE6 1-378): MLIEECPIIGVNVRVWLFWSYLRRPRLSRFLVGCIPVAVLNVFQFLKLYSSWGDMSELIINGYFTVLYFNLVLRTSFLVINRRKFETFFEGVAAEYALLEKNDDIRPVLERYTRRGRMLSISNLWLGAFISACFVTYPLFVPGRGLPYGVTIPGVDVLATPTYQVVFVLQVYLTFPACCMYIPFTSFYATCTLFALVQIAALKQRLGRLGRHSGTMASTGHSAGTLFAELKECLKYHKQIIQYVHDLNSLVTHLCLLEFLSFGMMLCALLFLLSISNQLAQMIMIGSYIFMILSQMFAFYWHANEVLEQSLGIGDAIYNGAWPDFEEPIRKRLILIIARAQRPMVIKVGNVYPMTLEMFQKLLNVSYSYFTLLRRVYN
T1 sequence (Q7QCC7 1-478): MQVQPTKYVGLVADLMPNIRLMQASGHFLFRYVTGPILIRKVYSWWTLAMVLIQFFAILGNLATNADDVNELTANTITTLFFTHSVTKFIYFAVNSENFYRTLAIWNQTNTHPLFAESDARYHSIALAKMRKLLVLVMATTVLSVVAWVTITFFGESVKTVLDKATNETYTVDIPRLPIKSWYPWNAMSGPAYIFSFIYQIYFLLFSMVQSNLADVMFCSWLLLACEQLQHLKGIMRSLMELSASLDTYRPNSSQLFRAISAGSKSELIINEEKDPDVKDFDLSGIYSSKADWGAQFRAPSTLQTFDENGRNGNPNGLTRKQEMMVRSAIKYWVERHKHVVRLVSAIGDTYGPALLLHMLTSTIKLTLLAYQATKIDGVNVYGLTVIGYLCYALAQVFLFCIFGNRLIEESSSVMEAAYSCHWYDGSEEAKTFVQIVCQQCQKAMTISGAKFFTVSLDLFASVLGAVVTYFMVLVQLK
Procedure: (§1) Full-length cDNAs for mosquito (Anopheles gambiae) odorant receptor (OR1, OR2, OR7, OR8, OR28), and fly (Drosophila melanogaster) odorant receptor (Or47a, Or83b), mouse TRP channel (TRPM8), and mouse serotonin receptor (5HT3) were obtained and subcloned into mammalian expression vectors. The following mammalian expression vectors were used:
(§2) Stable cell lines OR1/OR7, OR2/OR7, OR8/OR7, OR10/OR7, OR28/OR7 and TRPM8 were generated from HEK293T cells. HEK293T-based cell lines were cultured in DMEM supplemented with these additional antibiotics: 6 μg/mL blasticidin and 1 μg/mL puromycin, with the exception of the TRPM8 cell lines, which was cultured in DMEM supplemented with 1 μg/mL puromycin.
(§3) Cells were trypsinized and split into 35 mm dishes one day before transfection. Confluent cells (60-70%) in 35 mm dishes were transfected with 1 μg of insect OR(X) plasmids in pME18s-bla and 1 μg of OR7-pME18s-puro using lipofectamine 2000. For Anopheles odorant receptors, two plasmids were co-transfected into HEK cells: the ligand-specific receptor (OR1, OR2, OR8, OR28) and the corresponding olfactory co-receptor: OR7. Cell lines containing TRPM8 were transfected with single plasmid.
(§4) Stable cell lines were cultured in 10 cm dishes, and confluent cells (70-80%) were trypsinized. 10,000 cells/20 μL were transferred into each well of 384-well plates coated with poly-D-lysine, and cultured for 2 days. For Flip-In T-Rex cells (cell lines expressing Or47a/Or83b and 5HT3), 5 μL of tetracycline (5 μg/mL) were added 1 day before the assay. 20 μL of Ca-4 dye was loaded into each well for 1.5 hr at room temperature in the dark, and the dye-loaded plates were subjected to Ca^2+-imaging using a Hamamatsu FDSS6000 real time fluorescence plate reader. Odorant solutions (9× final concentration) were prepared by dissolving 1M stock solutions into Hank's Buffered Salt Solution (HBSS), and 30 μL of odor solution was transferred to each well in 384-well plates.
(§5) Compounds ([…] in DMSO) were stored in 384-well plates, and last two columns (32 wells total) contained only DMSO. 200 nL of small compounds were transferred into the odorant plates before the assay using the Perkin-Elmer Janus workstation. The odorant plates were spun down to remove air bubbles, and placed on the FDSS6000 plate loader, and 5 μL of odorant solution was applied to the cell plate on the FDSS6000. Ca^2+ increase was monitored with fluorescence at 525 nm by excitation at 485 nm.

[2] = molecular target: T2, OR1/OR7 (Anopheles gambiae, UniProt Q7QCC7+Q8WTE7); assay: Ca2+-imaging of stable HEK293T cell line OR1/OR7; assay type: cell-based
T2 construct: Full-length cDNAs for mosquito (Anopheles gambiae) odorant receptor (OR1, OR2, OR7, OR8, OR28); expressed in transfected cells
T2 sequence (Q8WTE7 1-417): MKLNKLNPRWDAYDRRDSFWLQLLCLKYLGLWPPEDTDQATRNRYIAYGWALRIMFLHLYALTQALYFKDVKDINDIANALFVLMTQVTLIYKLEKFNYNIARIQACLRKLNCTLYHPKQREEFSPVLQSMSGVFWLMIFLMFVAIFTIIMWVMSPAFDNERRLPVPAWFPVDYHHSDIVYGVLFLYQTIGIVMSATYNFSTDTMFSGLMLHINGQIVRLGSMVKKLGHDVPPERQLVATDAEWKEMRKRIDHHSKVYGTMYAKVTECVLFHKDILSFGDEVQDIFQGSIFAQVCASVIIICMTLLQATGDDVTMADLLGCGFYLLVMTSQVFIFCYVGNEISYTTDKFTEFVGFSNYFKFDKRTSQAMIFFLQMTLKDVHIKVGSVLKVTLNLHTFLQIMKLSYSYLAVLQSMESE
T2 sequence (Q7QCC7 1-478): T1 sequence (Q7QCC7 1-478)
Procedure: as §1, §2, §3, §4, §5

[3] = molecular target: OR28/OR7 (Anopheles gambiae, UniProt A0A1S4GFY3+Q7QCC7); assay: Ca2+-imaging of stable HEK293T cell line OR28/OR7; assay type: cell-based; settings: for inhibition at 4 µM: HEK-293T, compound applied at 4 μM, read-out: Percent Inhibition OR28 OR7
Sequence of OR28/OR7 (A0A1S4GFY3 entry or part of it, one chain of several): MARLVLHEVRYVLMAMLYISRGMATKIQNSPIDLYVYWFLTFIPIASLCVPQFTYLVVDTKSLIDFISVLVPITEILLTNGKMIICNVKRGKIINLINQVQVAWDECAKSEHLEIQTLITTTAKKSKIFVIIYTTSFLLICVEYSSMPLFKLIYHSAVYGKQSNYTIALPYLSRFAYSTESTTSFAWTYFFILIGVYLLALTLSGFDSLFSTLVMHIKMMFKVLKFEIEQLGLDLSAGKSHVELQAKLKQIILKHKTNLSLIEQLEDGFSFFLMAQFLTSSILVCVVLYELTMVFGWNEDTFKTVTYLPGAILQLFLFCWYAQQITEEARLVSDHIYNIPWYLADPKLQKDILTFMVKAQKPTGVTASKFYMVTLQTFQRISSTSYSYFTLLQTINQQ
Procedure: as §1, §2, §3, §4, §5

[4] = system: ab5 neuron that expresses the Or47a/Or83b receptor; assay: Single sensillum recordings of fly olfactory neurons; assay type: in vivo, Drosophila melanogaster
Procedure: Female flies (Drosophila melanogaster) of the w^1118 genotype were immobilized by inserting single adult flies into the wide end of a 200 μL pipette tip, and mounting this on a microscope cover glass with a piece of wax. Antennal olfactory neurons of immobilized flies were subjected to extracellular recording using a Syntech 10x AC probe connected to a Syntech IDAC4 amplifier. The recording electrode was inserted into the ab5 sensillum, which contains two olfactory sensory neurons (OSNs), and the reference electrode was placed into the eye. Action potentials in the OSNs induced by odorant stimulation were recorded. 15 μL of odorant [3-methyl-thio-1-propanol; diluted (v/v) in paraffin oil (10^−5 to 10^−3 dilution)], was applied to a filter strip, and 10 μL of test compounds, DEET, or solvent (100% ethanol) was applied on a second filter strip. Both filter strips were placed into a Pasteur glass pipette connected to the Syntech CS55 stimulus device, and applied to the fly antenna for 1 sec. Corrected spike increases were computed by subtracting the average spontaneous activity in 1 sec before odorant stimulus from the average activity during the stimulus.
The effect of selected compounds on odor-evoked action potentials was measured from the ab5 antennal sensillum, which houses the olfactory neuron that expresses the Or47a/Or83b receptor.

[5] = ligand 2-methyl phenol 30 μM, read-out: IC50 OR2 OR7
[6] = ligand 4-methyl phenol 30 μM, read-out: IC50 OR1 OR7
[7] = ligand acetophenone 300 μM, read-out: IC50 OR28 OR7

SMILES | pIC50 [3] | pIC50 [1, 5] | pIC50 [2, 6] | inhibition at 4 µM [3] [%] | pIC50 ([3]; Table B, read-out: IC50 OR28) | also measured
CCNc1nc(Cl)nc(NC(C)C)n1 [RU-T5] | < 4.70 |  |  |  |  | pIC50 [1]: > 5.70; pIC50 [2]: > 5.70
CCNc1nc(NC(C)C)nc(SC)n1 [RU-T3] | 4.70 to 5.70 |  |  |  |  | pIC50 [1]: 4.70 to 5.70; pIC50 [2]: < 3.66
CC(C)Nc1nc(Cl)nc(NCc2ccccc2)n1 [RU-T9] | < 4.30 | < 4.70 | > 5.70 |  |  | 
CCN(CC)C(=O)c1cccc(C)c1 [DEET, N,N-diethyl-m-toluamide, reference compound] |  |  |  |  |  | pIC50 [1]: < 4.70; pIC50 [2]: < 3.13; pIC50 [3, 7]: < 4.30
CC(C)Nc1nc(Cl)nc(N(C)C(C)C)n1 [RU-T7] | < 4.70 | > 5.70 | > 5.70 |  |  | 
CSc1nc(NC(C)C)nc(NC(C)C)n1 [RU-T2] | 4.70 to 5.70 |  |  |  |  | pIC50 [1]: 4.70 to 5.70; pIC50 [2]: 4.70 to 5.70
Cc1nc(NC(C)C)nc(NC(C)C)n1 [RU-T6] | 4.30 to 4.70 | < 4.70 | 4.70 to 5.70 |  |  | 
CC(C)Nc1nc(Cl)nc(NC(C)C)n1 [RU-T1] | < 3.66 | > 5.70 | > 5.70 |  |  | 
CC(C)Nc1nc(NC(C)C)nc(C(F)(F)F)n1 [RU-T8] | < 4.70 | > 5.70 | > 5.70 |  |  | 
CCNc1nc(NCC)nc(SC)n1 [RU-T4] | < 4.70 | 4.30 to 4.70 | 4.70 to 5.70 |  |  | 
CN(Cc1nccn1Cc1c(F)cccc1Cl)C(=O)C1CCCC1 [RU-I5] |  | > 5.70 | > 5.70 |  |  | suppression of 3-methyl-thio-1-propanol (3MTP)-evoked action potentials in the ab5 neuron ([4]; 10 mg dose on a filter paper): inhibits responses elicited by 10^−3 to 5×10^−5 dilutions of 3MTP; pIC50 [3, 7]: 4.70 to 5.70
O=C(c1nccn1Cc1c(F)cccc1Cl)N(CC1CCCC1)C1CC1 [RU-I3] |  | 4.70 to 5.70 | > 5.70 |  |  | pIC50 [3, 7]: > 5.70
C=CCN(Cc1nccn1Cc1cccc(F)c1)C(=O)c1ccccc1F [RU-I1] |  | > 5.70 | > 5.70 |  |  | suppression of 3-methyl-thio-1-propanol (3MTP)-evoked action potentials in the ab5 neuron ([4]; 3.5 mg dose on a filter paper): inhibits responses elicited by 5×10^−4 to 10^−5 dilutions of 3MTP; suppression of 3-methyl-thio-1-propanol (3MTP)-evoked action potentials in the ab5 neuron ([4]; 10 mg dose on a filter paper): inhibits responses elicited by 10^−3 to 10^−5 dilutions of 3MTP; pIC50 [3, 7]: 4.30 to 4.70
Fc1cccc(Cl)c1Cn1ccnc1CN(CC1CCCC1)C1CC1 [RU-I4] |  | 4.70 to 5.70 | > 5.70 |  |  | pIC50 [3, 7]: 4.70 to 5.70
O=C(C1CCCC1)N(Cc1nccn1CCc1c(F)cccc1Cl)C1CC1 [RU-I2] |  | > 5.70 | > 5.70 |  |  | suppression of 3-methyl-thio-1-propanol (3MTP)-evoked action potentials in the ab5 neuron ([4]; 3.5 mg dose on a filter paper): inhibits responses elicited by 10^−4 to 10^−5 dilutions of 3MTP; suppression of 3-methyl-thio-1-propanol (3MTP)-evoked action potentials in the ab5 neuron ([4]; 10 mg dose on a filter paper): inhibits responses elicited by 10^−3 to 10^−5 dilutions of 3MTP; pIC50 [3, 7]: 4.70 to 5.70
C=CCNC(=O)C(NC(=O)c1cccc(C)c1)C1CCN(C(=O)c2cccc(Br)c2)CC1 (stereo not drawn) [RU-0039123] |  |  |  | > 75 | > 7.00 | 
O=C(c1cccc(F)c1)N(Cc1c(-c2ccccc2)noc1N1CCCC1)CC1CCCO1 (stereo not drawn) [RU-0037434] |  |  |  | > 75 | > 7.00 | 
CCN(CC)c1onc(-c2ccc(F)cc2)c1CN(CCCOC)C(=O)c1ccc2c(c1)OCO2 [RU-0036983] |  |  |  | > 75 | > 7.00 | 
Cc1cccc(Cn2ccnc2CN(C(=O)c2ccccc2F)C2CCCCC2)c1 [RU-0047851] |  |  |  | 26 to 50 | > 7.00 | 
C=CCN(Cc1nccn1Cc1ccccc1F)C(=O)c1cccc(F)c1 [RU-0058232] |  |  |  | > 75 | > 7.00 | 
COCCCN(Cc1c(-c2ccccc2)noc1N1CCCC1)C(=O)c1ccc(F)cc1 [RU-0037386] |  |  |  | > 75 | > 7.00 | 
O=C(c1c(F)c(F)cc(F)c1F)N1CCOC(Cc2ccccc2)C1 (stereo not drawn) [RU-0050393] |  |  |  | > 75 | > 7.00 | 
CCOC(=O)c1c(NC(C)=O)c(-c2ccc(OC)cc2)cn1Cc1ccccc1 [RU-0077733] |  |  |  | 51 to 74 | > 7.00 | 
